From patent publication US7951844B2, “Tranquilizer and functional food” (J-Oil Mills, Inc., priority 2007, dated 2011)
Counter-ions that a name gives are not always drawn.

Legend:
[1] = system: fear-conditioned mice; experiment: fear condition-induced akinesia time (conditioned-fear measurement system); type: in vivo, mouse; conditions: for akinesia time (for every 60 seconds) compared to the control group, two-way analysis of variance: 30 mg/kg oral for 7 days, P<0.01 (menaquinone-4), P<0.05 (menaquinone-7); for akinesia time (% of freezing), period from 0 to 60 seconds / akinesia time (% of freezing), period from 180 to 240 seconds: male C57BL/6 mice, 30 mg/kg oral forced feeding for 7 days, measured 2 h after final administration, mean of 10 mice
Excerpt: A stimulus from the outside enters the brain through the sense organs, and is sent to the amygdaloid body and the hippocampus-lateral septum system, where it is judged if the stimulus is beneficial or harmful. (The judgment is referred to as “biological value evaluation”). The information that has been evaluated is stored in the amygdaloid body and the hippocampus. At the same time, biological response occurs, and biological response is visually recognized by an observer as emotional expression. A human and an animal learn (acquire) information on the biological value evaluation they gained through their experiences. When they receive the same stimulus, the stimulus is compared in the amygdaloid body and the hippocampus-lateral septum system. The response that occurs at the time is referred to as “conditioned emotional response”. Assume that a rat or mouse is put into a specified box and an electric stimulus it hates is applied to the rat or mouse. […] The akinesia is referred to as “condition-induced akinesia”. Currently, an animal model for evaluating anti-anxiety and anti-depression effects is widely used while using decrease of akinesia time as an index.
Whether the tranquilizer of the invention has a similar effect as a commercially-available anti-depressant was examined using said anxiety evaluation system. Specifically, fear-conditioned mice were fed through forced feeding a sample consisting of vitamin K and medium, or a control sample consisting of medium only, respectively, for 7 days. The effect of each sample was examined on the akinesia time of mice.
Menaquinone-4 and menaquinone-7 as vitamin K to be used as an active ingredient of an anti-anxiety agent of the invention were purchased from Wako Pure Chemical Industries, Ltd. After the given amounts of menaquinone-4 or menaquinone-7 were weighed, they were suspended in 0.5% MC so that a certain concentration is acquired. The control group was fed with only the medium (0.5% MC).
(§1) 10-week old male mice (C57BL/6NCrlCrlj, SPF grade) were purchased from Charles River Laboratories Japan. After 5-day quarantine period and subsequent 5-day acclimatization, weight measurement and observation of the general condition were conducted once a day.
A solid feed (ANG93G, Oriental Yeast Co., Ltd.) was placed in the feeder, and the mice were allowed to freely take the feed. The mice were allowed to freely drink water using a water bottle. The samples were orally administered through forced feeding in accordance specified method, using a disposable syringe made of polypropylene (manufactured by Terumo Corporation, Japan) attached with a disposable feeding needle for mouse (manufactured by Fuchigami kikai Ltd.). The sample was administered while it was stirred with a stirrer. The sample was administered so that the administration quantity of Vitamin K was 30 mg per kg in weight. The administration amount of liquid was calculated based on 10 ml/kg based using the weight on the date of administration.
(§2) The general conditions and death of a mouse were observed once a day before the administration. The weights were measured once a day before administration. A conditioned-fear measurement system (manufactured by ActiMetrics) was used for measuring electric stimulus and akinesia time. After the mice allocated to the individual groups were placed in the conditioned-fear measurement system, electric stimulus was applied for fear conditioning and the akinesia time was measured simultaneously. Electric stimulus of 0.3 mA for one second in every 15 seconds was applied for 240 seconds. Upon completion of the electric stimulus, the sample was administered to the mice. After 7-day administration, the mice in the control group (0.5% MC) and in the vitamin K-administered groups were placed again in the conditioned-fear measurement system at 2 hours or 2 hours and 1 minute after the final administration, and the akinesia time in 4 minutes was measured under the condition without electric stimulus being applied. […]

[2] = general conditions, death and weights during 7-day administration; type: in vivo, mouse; conditions: mice, 30 mg/kg oral for 7 days, compared with control group (0.5% MC)
Procedure: as §1
A solid feed (ANG93G, Oriental Yeast Co., Ltd.) was placed in the feeder, and the mice were allowed to freely take the feed. The mice were allowed to freely drink water using a water bottle. […] The sample was administered so that the administration quantity of Vitamin K was 30 mg per kg in weight. The administration amount of liquid was calculated based on 10 ml/kg based using the weight on the date of administration.
as §2, with “A conditioned-fear measurement system (manufactured by ActiMetrics) was used for measuring electric stimulus and akinesia time.” left out, “Electric stimulus of 0.3 mA for one second in every 15 seconds was applied for 240 seconds. Upon completion of the electric stimulus, the sample was administered to the mice.” left out

[3] = MK-7 originating from fermented soybeans taken, compared with MK-4 taken directly (Ozaki et al. 2006); cited from earlier work
[4] = system: fear-conditioned mice; conditions: 7-day oral administration of 30 mg/kg; cited from earlier work

Structure (SMILES) | akinesia time (for every 60 seconds) compared to the control group, two-way analysis of variance [1] | akinesia time (% of freezing), period from 0 to 60 seconds [1] [%] | akinesia time (% of freezing), period from 180 to 240 seconds [1] [%] | weights through the administration period [2] | MK-4 in the brain [3] | condition-induced akinesia [4]
CC(C)=CCC/C(C)=C/CC/C(C)=C/CC/C(C)=C/CC1=C(C)C(=O)c2ccccc2C1=O [menaquinone-4] | significant decreases in the akinesia time were observed | 31.99 | 22.29 | remained substantially constant |  | 
CC(C)=CCC/C(C)=C/CC/C(C)=C/CC/C(C)=C/CC/C(C)=C/CC/C(C)=C/CC/C(C)=C/CC1=C(C)C(=O)c2ccccc2C1=O [menaquinone-7] | significant decreases in the akinesia time were observed | 38.84 | 20.83 | remained substantially constant | increases in the brain more remarkably | 
CCN(CC)C(=O)C1(c2ccccc2)CC1CN (stereo not shown) [milnacipran hydrochloride] |  |  |  |  |  | akinesia is alleviated
